Experimental data from ChEMBL document CHEMBL4387748, “Chalcone derivatives bearing chromen or benzo[f]chromen moieties: Design, synthesis, and evaluations of anti-inflammatory, analgesic, selective COX-2 inhibitory activities” (Bioorg Med Chem Lett, 2019).

Experiments:
Mus musculus [1] = assay: Anti-inflammatory activity in mouse assessed as inhibition of xylene-induced ear edema at 30 mg/kg, ip dosed prior to xylene challenge and measured 1 hr post xylene injection relative to control; assay type: functional
Mus musculus [2] = assay: Analgesic activity in mouse at 30 mg/kg, ip measured after 60 mins by hot plate technique relative to control; assay type: functional; details: 1 h
[3] = molecular target: Prostaglandin G/H synthase 1 (Ovis aries) (UniProt P05979)
[4] = Selectivity index, ratio of IC50 for COX1 (unknown origin) to IC50 for COX2 (unknown origin); details: Homo sapiens
[5] = molecular target: Prostaglandin G/H synthase 2 (Ovis aries) (UniProt P79208)
Prostaglandin G/H synthase 2 (Ovis aries), sequence (P79208 whole entry, looked up): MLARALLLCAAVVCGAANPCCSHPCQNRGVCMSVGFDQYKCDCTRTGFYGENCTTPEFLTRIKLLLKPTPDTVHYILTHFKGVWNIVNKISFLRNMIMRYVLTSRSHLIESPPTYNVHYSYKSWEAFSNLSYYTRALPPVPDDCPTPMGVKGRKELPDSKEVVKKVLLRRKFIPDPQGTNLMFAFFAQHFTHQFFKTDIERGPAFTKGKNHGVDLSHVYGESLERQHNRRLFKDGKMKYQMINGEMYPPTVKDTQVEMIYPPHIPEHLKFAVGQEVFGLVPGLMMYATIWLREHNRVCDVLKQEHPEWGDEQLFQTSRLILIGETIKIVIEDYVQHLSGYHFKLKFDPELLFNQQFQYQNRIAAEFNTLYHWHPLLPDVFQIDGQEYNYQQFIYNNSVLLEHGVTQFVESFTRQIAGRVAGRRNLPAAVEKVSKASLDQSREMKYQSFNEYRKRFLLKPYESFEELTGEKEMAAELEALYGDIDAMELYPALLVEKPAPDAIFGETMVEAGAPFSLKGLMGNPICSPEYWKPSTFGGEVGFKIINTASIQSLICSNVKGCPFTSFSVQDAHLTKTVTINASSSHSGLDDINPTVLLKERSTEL

SMILES | inhibition in vivo at 30 mg/kg (Mus musculus [1]) [%] | inhibition in vivo at 30 mg/kg (Mus musculus [2]) [%] | IC50 [3] [µM] | Ratio IC50 [4] | IC50 [5] [nM]
Cc1ccc(C(=O)/C=C/C2=Cc3ccccc3OC2)cc1 | 53.1 | 66.7 to 100 | – | – | –
O=C(/C=C/C1=Cc2c(ccc3ccccc23)OC1)c1cccc(Br)c1 | 67.9 | 96.2 to 100 | – | – | –
O=C(/C=C/C1=Cc2ccccc2OC1)c1ccc(Br)cc1 | 66 | 66.7 to 100 | 7.21 | 17.2 | 420
O=C(/C=C/C1=Cc2ccccc2OC1)c1ccccc1Cl | 52.3 | 66.7 to 100 | – | – | –
COc1ccc(C(=O)/C=C/C2=Cc3c(ccc4ccccc34)OC2)cc1 | 79.3 | 96.2 to 100 | 9.04 | 23.8 | 380
COc1ccc(C(=O)/C=C/C2=Cc3ccccc3OC2)cc1 | 66.2 | 66.7 to 100 | 9.2 | 20 | 460
O=C(/C=C/C1=Cc2c(ccc3ccccc23)OC1)c1ccccc1Br | 79.8 | 96.2 to 100 | – | – | –
O=C(/C=C/C1=Cc2ccccc2OC1)c1ccc(Cl)cc1 | 56.1 | 66.7 to 100 | – | – | –
O=C(/C=C/C1=Cc2ccccc2OC1)c1ccc(Cl)cc1Cl | 53.3 | 66.7 to 100 | – | – | –
CN(C)c1ccc(C(=O)/C=C/C2=Cc3ccccc3OC2)cc1 | 57.3 | 66.7 to 100 | – | – | –
O=C(/C=C/C1=Cc2ccccc2OC1)c1cccc(F)c1 | 52.4 | 66.7 to 100 | – | – | –
O=C(/C=C/C1=Cc2c(ccc3ccccc23)OC1)c1cccc(F)c1 | 70.1 | 96.2 to 100 | – | – | –
O=C(/C=C/C1=Cc2c(ccc3ccccc23)OC1)c1ccccc1Cl | 66.1 | 96.2 to 100 | – | – | –
O=C(/C=C/C1=Cc2ccccc2OC1)c1ccc(F)cc1 | 65.6 | 66.7 to 100 | 8.32 | 22.5 | 370
O=C(/C=C/C1=Cc2ccccc2OC1)c1ccc(C(F)(F)F)cc1 | 75.5 | 100 | 7.75 | 9.34 | 830
COc1ccc2c(c1)c(CC(=O)O)c(C)n2C(=O)c1ccc(Cl)cc1 [INDOMETHACIN] | 64.3 to 82.2 | – | – | – | –
O=C(/C=C/C1=Cc2ccccc2OC1)c1ccc([N+](=O)[O-])cc1 | 50.8 | 85.1 | – | – | –
O=C(/C=C/C1=Cc2c(ccc3ccccc23)OC1)c1ccccc1F | 73.3 | 96.2 to 100 | 6.41 | 20.7 | 310
Nc1ccc(C(=O)/C=C/C2=Cc3c(ccc4ccccc34)OC2)cc1 | 67.1 | 96.2 to 100 | – | – | –
CCc1ccc(C(=O)/C=C/C2=Cc3c(ccc4ccccc34)OC2)cc1 | 83.1 | 96.2 to 100 | 8.89 | 20.7 | 430

SMILES | inhibition in vivo at 30 mg/kg (Mus musculus [1]) [%] | inhibition in vivo at 30 mg/kg (Mus musculus [2]) [%] | IC50 [3] [µM] | Ratio IC50 [4] | IC50 [5] [nM]
O=C(/C=C/C1=Cc2ccccc2OC1)c1ccccc1Br | 56.6 | 66.7 to 100 | – | – | –
O=C(/C=C/C1=Cc2ccccc2OC1)c1cccc(Cl)c1 | 51 | 66.7 to 100 | – | – | –
COc1ccc(C(=O)/C=C/C2=Cc3c(ccc4ccccc34)OC2)cc1OC | 55.1 | 96.2 to 100 | – | – | –
O=C(/C=C/C1=Cc2c(ccc3ccccc23)OC1)c1cccc(Cl)c1 | 75 | 96.2 to 100 | – | – | –
Cc1ccc(C(=O)/C=C/C2=Cc3c(ccc4ccccc34)OC2)cc1C | 54.2 | 96.2 to 100 | – | – | –
O=C(/C=C/C1=Cc2c(ccc3ccccc23)OC1)c1ccc([N+](=O)[O-])cc1 | 76.3 | 100 | 7.77 | 31.1 | 250
O=C(/C=C/C1=Cc2c(ccc3ccccc23)OC1)c1ccc(C(F)(F)F)cc1 | 83.6 | 100 | 8.63 | 26.1 | 330
Cc1ccc(C(=O)/C=C/C2=Cc3c(ccc4ccccc34)OC2)cc1 | 74.6 | 96.2 to 100 | – | – | –
O=C(/C=C/C1=Cc2ccccc2OC1)c1ccccc1F | 64.4 | 66.7 to 100 | – | – | –
O=C(/C=C/C1=Cc2c(ccc3ccccc23)OC1)c1ccc(Cl)cc1Cl | 84.1 | 100 | 7.92 | 27.3 | 290
O=C(/C=C/C1=Cc2c(ccc3ccccc23)OC1)c1ccc(Br)cc1 | 57.5 | 96.2 to 100 | – | – | –
CCc1ccc(C(=O)/C=C/C2=Cc3ccccc3OC2)cc1 | 68.1 | 66.7 to 100 | 6.22 | 15.9 | 390
CN(C)c1ccc(C(=O)/C=C/C2=Cc3c(ccc4ccccc34)OC2)cc1 | 67.2 | 96.2 to 100 | – | – | –
O=C(/C=C/C1=Cc2c(ccc3ccccc23)OC1)c1ccc(F)cc1 | 57.3 | 96.2 to 100 | – | – | –
COc1ccc(C(=O)/C=C/C2=Cc3ccccc3OC2)cc1OC | 67.6 | 66.7 to 100 | 7.08 | 15.4 | 460
O=C(/C=C/C1=Cc2ccccc2OC1)c1cccc(Br)c1 | 51.7 | 66.7 to 100 | – | – | –
Nc1ccc(C(=O)/C=C/C2=Cc3ccccc3OC2)cc1 | 52.6 | 66.7 to 100 | – | – | –
O=C(/C=C/C1=Cc2c(ccc3ccccc23)OC1)c1ccc(Cl)cc1 | 67.1 | 96.2 to 100 | – | – | –
Cc1ccc(C(=O)/C=C/C2=Cc3ccccc3OC2)cc1C | 48.1 | 66.7 to 100 | – | – | –
